Laboratory results reported in US20160084823A1, “METHODS AND KITS FOR TESTING THE GE[…] AN AGENT” (INSERM (INSTITUT NATIONAL DE LA SANTÉ ET DE LA RECHERCHE …, priority 2013, published 2016).

System: p53 target genes (KIAA0284; PODXL1; RRAD; FHL2; TP53I3)
Experiment: p53 genotoxicity assay: RT-QMPSF of p53 target gene induction in EBV-immortalized human lymphocytes (wild type TP53 vs p.R175H)
Details: 0.3 μM doxorubicin; lymphocytes from a healthy control and from a Li-Fraumeni patient with p.R175H germline mutation; FIG. 2
Protocol: In the first version of this assay EBV-immortalized human lymphocytes derived from healthy blood donor with wild type TP53 or Li-Fraumeni patients harboring germline heterozygous TP53 mutations are cultured in 24 well plates, during 5 h, with or without the chemicals to test. RNA is then extracted using Nucleospin RNAII kit (Macherey Nagel). […] RT-QMPSF analysis using 5 TP53 target genes and 2 control amplicons are performed on cells treated or not with the chemicals and profiles were compared after normalization on controls amplicons.
In each case, the TP53 genotype of EBV-immortalized lymphocytes was checked by sequencing and QMPSF analyses. EBV-transformed lymphocytes were maintained in RPMI 1640 medium (GIBCO, Invitrogen), supplemented with 10% heat-inactivated fetal bovine serum (Invitrogen) at 37° C. with 5% CO2. […]
After treatment cells were centrifuged, lysed using RA1 reagent from Nucleospin RNAII (Macherey Nagel), RNA was extracted following the manufacturer's instructions and quantified using a ND-1000 UV-Vis Spectrophotometer (NanoDrop technologies). The integrity of the RNA was assessed with the Agilent 2100 Bioanalyzer (Agilent), according to the manufacturer's instructions. […]

In the case of `COc1cccc2c1C(=O)c1c(O)c3c(c(O)c1C2=O)C[C@@](O)(C(=O)CO)C[C@@H]3O[C@H]1C[C@H](N)[C@H](O)[C@H](C)O1` [doxorubicin], the “expression induction of p53 target genes (RT-QMPSF)” value is reported as “showed clearly expression induction of 5 p53 target genes (KIAA0284; PODXL1; RRAD; FHL2; TP53I3) specifically in control lymphocytes”.
